In the assay the target is T1, endothelial lipase (Homo sapiens, UniProt Q9Y5X9).
T1 sequence (Q9Y5X9 21-500): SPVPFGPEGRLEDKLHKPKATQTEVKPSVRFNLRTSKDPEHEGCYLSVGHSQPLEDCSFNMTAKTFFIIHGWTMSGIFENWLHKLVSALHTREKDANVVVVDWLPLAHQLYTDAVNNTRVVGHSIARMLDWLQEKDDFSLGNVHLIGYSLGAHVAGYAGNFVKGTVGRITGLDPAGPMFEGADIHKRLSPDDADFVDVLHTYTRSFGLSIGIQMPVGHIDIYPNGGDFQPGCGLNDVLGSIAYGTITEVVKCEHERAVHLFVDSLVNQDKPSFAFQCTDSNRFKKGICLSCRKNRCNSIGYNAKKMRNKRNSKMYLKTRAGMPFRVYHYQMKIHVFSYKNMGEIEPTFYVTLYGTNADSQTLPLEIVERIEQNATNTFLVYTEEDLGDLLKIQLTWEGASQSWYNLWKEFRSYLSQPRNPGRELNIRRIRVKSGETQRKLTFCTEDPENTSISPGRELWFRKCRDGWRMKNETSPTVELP
The experiment in a line: Endothelial lipase inhibiting activity of boronic acids. In kind it is biochemical. The note with it: for inhibition at 50 µM: 50 micromolar solution of each compound; for IC50: endothelial lipase. As for the experimental part:
The endothelial lipase inhibiting activity of various aliphatic boronic acids was tested.
The endothelial lipase inhibiting activity of various aromatic boronic acids was tested.

Structures are written as SMILES.

The term inhibition denotes how much of the control response was suppressed. Lower therefore signals a response near the control. What is called IC50 is the concentration that gives 50% inhibition.

Where the note is “aliphatic boronic acids”, `CCCCCCB(O)O` gave an inhibition at 50 µM of 53%.
Turning to `OB(O)C1CCCC1`, for the setting “aromatic boronic acids”, 50 µM produced 7% inhibition.
Compound `CCCCCB(O)O` came in with an inhibition at 50 µM (aliphatic boronic acids) of 42%.
For `CC(=O)c1ccc(B(O)O)cc1`, where the note is “aromatic boronic acids”, the inhibition at 50 µM turned out to be 80% and the IC50 was found to be 26 µM.
As for `CCCCCCC/C=C/B(O)O`, the inhibition at 50 µM (aliphatic boronic acids) was 82%.
For the setting “aromatic boronic acids”, `CCc1ccc(B(O)O)cc1` came in with an inhibition at 50 µM of 83% and an IC50 of 11 µM.
Take `CC(C)CB(O)O`: at 50 µM the inhibition (aliphatic boronic acids) was 9%.
`OB(O)Cc1ccccc1` gave an inhibition at 50 µM (aromatic boronic acids) of 10%.
Under “aromatic boronic acids”, `Cc1ccc(B(O)O)cc1` came in with an inhibition at 50 µM of 88% and an IC50 of 17 µM.
In the case of `C=CCCCB(O)O`, for the setting “aliphatic boronic acids”, the inhibition at 50 µM was found to be 72% and the IC50 amounted to 26 µM.
Regarding `CCCCCCCCCCCCCCB(O)O`, for the setting “aliphatic boronic acids”, the inhibition at 50 µM amounted to 89% and the IC50 worked out at 1 µM.
Compound `CCCCCC/C=C/B(O)O` had an inhibition at 50 µM (aliphatic boronic acids) of 77%.
In turn, `CCCCCCCCCCCCCCCB(O)O` registered an inhibition at 50 µM (aliphatic boronic acids) of 90%.
For `OB(O)C1CCCCC1`, testing at 50 µM (aromatic boronic acids) gave an inhibition of 1%.
`CCCCC/C=C/B(O)O` yielded an inhibition at 50 µM (aliphatic boronic acids) of 63%.
Same read-out and setting: the figure for `CCCCCCCCCCCCCCCCB(O)O` is 62%.
Consider `O=Cc1ccc(B(O)O)cc1`, for which, for the setting “aromatic boronic acids”, the inhibition at 50 µM was 60%.

Source of the values: patent US20090209492A1, “Lipase Inhibitors” (TRUSTEES OF TUFTS COLLEGE, priority 2004, published 2009).
